Tests used:
[1] = test system: kidneys isolated from rats; assay: Renal function of grafted rat kidneys preserved 6 hours in a gaseous atmosphere (creatinine clearance, 24-hour albuminuria); format: in vivo, Wistar rats; details: days D7 and D14 after graft, kidney preserved 6 hours in 100% by volume gas; for creatinine clearance of the grafted kidneys: estimated, related back to 100 g of weight, FIG. 1
Text: (§1) To do this, kidneys isolated from rats intended for a transplantation were used.
(§2) 120 Wistar rats, weighing between 200 g and 250 g, were used while adhering to the Guide for the Care and Use of Laboratory Animals published by the National Institutes of Health.
(§3) The animals were operated upon under general anesthesia and the left kidneys were removed and then preserved in several gaseous atmospheres, namely: • Group A (according to the invention): argon (100% by volume) • Group B (comparative): xenon (100% by volume) • Group C (1st control): air (i.e. essentially N2/O2 mixture) • Group D (2nd control): nitrogen
(§4) The kidneys of a rat are preserved therein for 6 hours before being grafted onto another anesthetized rat according to the conditions previously described. The rats are kept under observation for 14 days.
(§5) In order to carry out an evaluation of the effectiveness of the protection produced by the various gases tested, the renal function and renal morphology of the grafted kidneys were examined.
The renal function was evaluated by calculating the creatinine clearance estimated and related back to 100 g of weight, and by measuring the 24-hour albuminuria.

[2] = test system: kidneys isolated from rats; assay: Renal morphology of grafted rat kidneys preserved 6 hours in a gaseous atmosphere (standard histology, histochemistry with anti-active caspase-3 and anti-CD10 antibodies); format: in vivo, Wistar rats; details: grafted kidneys preserved 6 hours in 100% by volume gas; for kidneys showing cell lysis with subconfluent coagulation necrosis (standard histology): share of kidneys of the group
Text: as §1, §2, §3, §4, §5
The renal morphology was evaluated by standard histology and histochemistry using anti-active caspase-3 and anti-CD10 antibodies.

## [Ar] [argon]
[1]; 24-hour albuminuria, FIG. 2
  albuminuria: half as much in group A than in the other groups
[1]
  creatinine clearance of the grafted kidneys: preserved a good creatinine clearance
[2]; anti-CD10 antibody
  CD10 labeling (histochemistry; preservation of the tubule functional structure): very well preserved
[2]; anti-active caspase-3 antibody
  caspase-3 labeling (histochemistry; cell degeneration): discrete and in foci
[2]
  kidneys showing cell lysis with subconfluent coagulation necrosis (standard histology): no kidney of group A under an argon atmosphere exhibited any sign of cell lysis or necrosis

## [Xe] [xenon, reference compound]
[1]
  creatinine clearance of the grafted kidneys: slightly better with xenon, but significantly lower compared with argon
[2]
  kidneys showing cell lysis with subconfluent coagulation necrosis (standard histology): ⅓
